± gives the expanded uncertainty stated by the source.
Conditions: Liquid, Vibrating tube method

Cc1ccc(O)cc1 [4-methylphenol]
Conditions	mass density [kg/m3]
312.9 K, 1002 kPa	1019.4 ± 0.2
312.9 K, 2016 kPa	1020 ± 0.2
312.9 K, 3017 kPa	1020.6 ± 0.2
312.9 K, 4016 kPa	1021.1 ± 0.2
312.9 K, 5002 kPa	1021.7 ± 0.2
312.9 K, 6010 kPa	1022.2 ± 0.2
312.9 K, 7000 kPa	1022.8 ± 0.2
312.9 K, 8006 kPa	1023.3 ± 0.2
312.9 K, 9001 kPa	1023.9 ± 0.2
312.9 K, 10002 kPa	1024.4 ± 0.2
312.9 K, 11006 kPa	1024.9 ± 0.2
312.9 K, 12002 kPa	1025.5 ± 0.2
312.9 K, 13015 kPa	1026 ± 0.2
312.9 K, 14007 kPa	1026.6 ± 0.2
312.9 K, 15006 kPa	1027.1 ± 0.2
312.9 K, 16019 kPa	1027.6 ± 0.2
312.9 K, 17004 kPa	1028.1 ± 0.2
312.9 K, 18011 kPa	1028.6 ± 0.2
312.9 K, 19009 kPa	1029.2 ± 0.2
312.9 K, 20005 kPa	1029.7 ± 0.2
312.9 K, 21008 kPa	1030.2 ± 0.2
312.9 K, 22004 kPa	1030.7 ± 0.2
312.9 K, 23023 kPa	1031.2 ± 0.2
312.9 K, 24004 kPa	1031.7 ± 0.2
312.9 K, 25006 kPa	1032.2 ± 0.2
322.78 K, 1019 kPa	1011.6 ± 0.2
322.78 K, 2015 kPa	1012.2 ± 0.2
322.78 K, 3002 kPa	1012.8 ± 0.2
322.78 K, 4013 kPa	1013.4 ± 0.2
322.78 K, 5011 kPa	1013.9 ± 0.2
322.78 K, 6018 kPa	1014.5 ± 0.2
322.78 K, 7022 kPa	1015.1 ± 0.2
322.78 K, 8001 kPa	1015.7 ± 0.2
322.78 K, 9015 kPa	1016.3 ± 0.2
322.78 K, 10006 kPa	1016.8 ± 0.2
322.78 K, 11002 kPa	1017.4 ± 0.2
322.78 K, 12018 kPa	1017.9 ± 0.2
322.78 K, 13002 kPa	1018.4 ± 0.2
322.78 K, 14016 kPa	1019 ± 0.2
322.78 K, 15001 kPa	1019.5 ± 0.2
322.78 K, 16000 kPa	1020.1 ± 0.2
322.78 K, 17001 kPa	1020.6 ± 0.2
322.78 K, 18029 kPa	1021.2 ± 0.2
322.78 K, 19015 kPa	1021.7 ± 0.2
322.78 K, 20011 kPa	1022.2 ± 0.2
322.78 K, 21022 kPa	1022.8 ± 0.2
322.78 K, 22002 kPa	1023.3 ± 0.2
322.78 K, 23006 kPa	1023.8 ± 0.2
322.78 K, 24010 kPa	1024.4 ± 0.2
322.78 K, 25023 kPa	1024.9 ± 0.2
332.54 K, 1040 kPa	1003.7 ± 0.2
332.54 K, 2019 kPa	1004.3 ± 0.2
332.54 K, 3013 kPa	1005 ± 0.2
332.54 K, 4019 kPa	1005.6 ± 0.2
332.54 K, 5001 kPa	1006.2 ± 0.2
332.54 K, 6001 kPa	1006.8 ± 0.2
332.54 K, 7002 kPa	1007.5 ± 0.2
332.54 K, 8041 kPa	1008.1 ± 0.2
332.54 K, 9000 kPa	1008.7 ± 0.2
332.54 K, 10001 kPa	1009.2 ± 0.2
332.54 K, 11006 kPa	1009.7 ± 0.2
332.54 K, 12001 kPa	1010.4 ± 0.2
332.54 K, 13008 kPa	1010.9 ± 0.2
332.54 K, 14004 kPa	1011.5 ± 0.2
332.54 K, 15003 kPa	1012.1 ± 0.2
332.54 K, 16015 kPa	1012.7 ± 0.2
332.54 K, 17011 kPa	1013.3 ± 0.2
332.54 K, 18014 kPa	1013.9 ± 0.2
332.54 K, 19014 kPa	1014.4 ± 0.2
332.54 K, 20009 kPa	1014.9 ± 0.2
332.54 K, 21013 kPa	1015.4 ± 0.2
332.54 K, 22007 kPa	1016 ± 0.2
332.54 K, 23000 kPa	1016.6 ± 0.2
332.54 K, 24001 kPa	1017.1 ± 0.2
332.54 K, 25032 kPa	1017.7 ± 0.2
342.37 K, 1001 kPa	995.7 ± 0.2
342.37 K, 2002 kPa	996.4 ± 0.2
342.37 K, 3004 kPa	997.1 ± 0.2
342.37 K, 4025 kPa	997.7 ± 0.2
342.37 K, 5036 kPa	998.2 ± 0.2
342.37 K, 6032 kPa	998.8 ± 0.2
342.37 K, 7001 kPa	999.3 ± 0.2
342.37 K, 8020 kPa	999.9 ± 0.2
342.37 K, 9003 kPa	1000.6 ± 0.2
342.37 K, 10002 kPa	1001.3 ± 0.2
342.37 K, 11036 kPa	1001.9 ± 0.2
342.37 K, 12001 kPa	1002.6 ± 0.2
342.37 K, 13020 kPa	1003.2 ± 0.2
342.37 K, 14019 kPa	1003.9 ± 0.2
342.37 K, 15007 kPa	1004.5 ± 0.2
342.37 K, 16000 kPa	1005.1 ± 0.2
342.37 K, 17022 kPa	1005.6 ± 0.2
342.37 K, 18014 kPa	1006.2 ± 0.2
342.37 K, 19033 kPa	1006.8 ± 0.2
342.37 K, 20005 kPa	1007.4 ± 0.2
342.37 K, 21005 kPa	1007.9 ± 0.2
342.37 K, 22010 kPa	1008.4 ± 0.2
342.37 K, 22962 kPa	1009 ± 0.2
342.37 K, 24021 kPa	1009.7 ± 0.2
342.37 K, 25017 kPa	1010.2 ± 0.2
352.15 K, 1023 kPa	987.9 ± 0.2
352.15 K, 2007 kPa	988.5 ± 0.2
352.15 K, 3000 kPa	989.1 ± 0.2
352.15 K, 4003 kPa	989.8 ± 0.2
352.15 K, 5001 kPa	990.4 ± 0.2
352.15 K, 6009 kPa	991.1 ± 0.2
352.15 K, 7001 kPa	991.7 ± 0.2
352.15 K, 8037 kPa	992.4 ± 0.2
352.15 K, 9008 kPa	993 ± 0.2
352.15 K, 10040 kPa	993.7 ± 0.2
352.15 K, 11006 kPa	994.3 ± 0.2
352.15 K, 12001 kPa	994.9 ± 0.2
352.15 K, 13001 kPa	995.5 ± 0.2
352.15 K, 14009 kPa	996.2 ± 0.2
352.15 K, 15000 kPa	996.8 ± 0.2
352.15 K, 16010 kPa	997.4 ± 0.2
352.15 K, 17028 kPa	998 ± 0.2
352.15 K, 18020 kPa	998.6 ± 0.2
352.15 K, 19045 kPa	999.3 ± 0.2
352.15 K, 20018 kPa	1000 ± 0.2
352.15 K, 21038 kPa	1000.5 ± 0.2
352.15 K, 22000 kPa	1001.1 ± 0.2
352.15 K, 23065 kPa	1001.8 ± 0.2
352.15 K, 24024 kPa	1002.4 ± 0.2
352.15 K, 25039 kPa	1002.9 ± 0.2
361.9 K, 1017 kPa	979.6 ± 0.2
361.9 K, 1991 kPa	980.3 ± 0.2
361.9 K, 3004 kPa	981 ± 0.2
361.9 K, 4027 kPa	981.5 ± 0.2
361.9 K, 4992 kPa	982.3 ± 0.2
361.9 K, 6000 kPa	983.1 ± 0.2
361.9 K, 7033 kPa	983.6 ± 0.2
361.9 K, 8010 kPa	984.4 ± 0.2
361.9 K, 9001 kPa	985 ± 0.2
361.9 K, 9998 kPa	985.8 ± 0.2
361.9 K, 10994 kPa	986.5 ± 0.2
361.9 K, 11976 kPa	987 ± 0.2
361.9 K, 12949 kPa	987.7 ± 0.2
361.9 K, 14010 kPa	988.3 ± 0.2
361.9 K, 15017 kPa	989 ± 0.2
361.9 K, 15992 kPa	989.6 ± 0.2
361.9 K, 16992 kPa	990.3 ± 0.2
361.9 K, 18007 kPa	990.8 ± 0.2
361.9 K, 19034 kPa	991.6 ± 0.2
361.9 K, 19992 kPa	992.1 ± 0.2
361.9 K, 21000 kPa	992.9 ± 0.2
361.9 K, 22059 kPa	993.4 ± 0.2
361.9 K, 23020 kPa	994.1 ± 0.2
361.9 K, 24014 kPa	994.8 ± 0.2
361.9 K, 25002 kPa	995.3 ± 0.2

Source: the NIST ThermoML archive (doi:10.1021/je400055v)
